From US8470765B2, “Polypeptides and antibacterial or antiseptic use of same” (AnGes MG, Inc., priority 2009, dated 2013)
Read-outs that look alike come from different tables or passages of the source. No end group written: not given here.

Tests used:
[1] = test system: Salmonella enteritidis IID 604; details: IID 604
[2] = test system: Escherichia coli ATCC 25922; assay: ATP Assay (viability at 3 hours), Table 6; type: cell-based; details: 3 h, 5 μg/mL
Protocol: (§1) Bacteria (Escherichia coli ATCC 25922, Pseudomonas aeruginosa ATCC 27853, Staphylococcus aureus ATCC29213, and Staphylococcus epidermidis JCM 2414) were inoculated to Mueller-Hinton broth: MHB or LB medium, and cultured at a temperature and period suited for each strain. From the thus obtained colonies, each strain was inoculated to a fresh liquid medium and cultured for 16 to 20 hours. Then an aliquot having a volume (10 to 50 μL) appropriate to each strain was inoculated to a fresh liquid medium and cultured for 4 to 6 hours, followed by the measurement of the absorbance at 600 nm. After comparing the turbidity with McFarland #0.5, the resultant was diluted with a medium. Each strain was added to about 10^5 CFU/mL (final concentration).
(§2) Each of the peptide solutions to be tested was diluted with the medium to obtain a solution of 10 μg/mL. As positive controls, tobramycin (TOB), oxacillin (OX) and meropenem (MEPM) were used. By dilution with sterilized purified water to 1.0 mg/mL, positive control-containing media having concentrations of […], respectively for TOB; 0.5, 0.12 and 0.06 μg/mL, respectively, for OX; and 1.0, 0.25, 0.12, 0.06, 0.03 and 0.008 μg/mL respectively, for MEPM, were prepared. To a 96-well microtiter plate, 0.1 mL of the inoculation solution and 0.1 mL of the peptide- or positive control-containing medium having the respective concentration were added, and cultured at 37° C. for 3 hours. The well not containing the sample was used as a negative control. After the culturing, ATP was measured using BacTiter-Glo Microbial Cell Viability Assay kit of PROMEGA, and compared with that in the negative control to obtain a relative value which was defined as a viability. The antibacterial activity was evaluated based on the viability at 3 hours later using ATP as an index.
(§3) The medium used in this test for bacteria was Mueller-Hinton broth. Independent experiments were carried out twice for each strain.

[3] = test system: Staphylococcus aureus ATCC29213; assay: ATP Assay (viability at 3 hours), Table 6; type: cell-based; details: 3 h, 5 μg/mL
Protocol: as §1, §2, §3

[4] = test system: Pseudomonas aeruginosa ATCC 27853; assay: ATP Assay (viability at 3 hours), Table 6; type: cell-based; details: 3 h, 5 μg/mL
Protocol: as §1, §2, §3

[5] = test system: Bacillus subtilis NBRC3134; details: NBRC3134
[6] = test system: Fusobacterium nucleatum JCM 11025; details: JCM 11025
[7] = test system: Micrococcus luteus NBRC13867
[8] = test system: Actinobacillus actinomycetemcomitans JCM2434
[9] = test system: Alternaria alternata JCM5800; details: Table 4; two tests, first/second value where not identical
Fusarium solani JCM11383 = details: JCM11383
[10] = test system: Salmonella typhimurium JCM1652; details: JCM1652
Candida krusei NBRC1395 = details: NBRC1395
[11] = test system: Trichophyton mentagrophytes NBRC6124; details: NBRC6124
[12] = test system: Trichophyton rubrum NBRC9185; details: NBRC9185
[13] = test system: Escherichia coli ATCC 25922; assay: microbe, parasite or virus in culture; type: cell-based
Protocol: (§4) Bacteria (Escherichia coli ATCC 25922, Pseudomonas aeruginosa ATCC 27853, Staphylococcus aureus ATCC29213, Klebsiella pneumoniae JCM 1662, Enterobacter cloacae JCM 1232, Enterobacter aerogenes JCM 1235 and Staphylococcus epidermidis JCM 2414) were inoculated to Mueller-Hinton broth: MHB or LB medium, and cultured at a temperature and period suited for each strain. From the thus obtained colonies, each strain was inoculated to a fresh liquid medium and cultured for 16 to 20 hours. Then an aliquot having a volume (10 to 50 appropriate to each strain was inoculated to a fresh liquid medium and cultured for 4 to 6 hours, followed by the measurement of the absorbance at 600 nm. After comparing the turbidity with McFarland #0.5, the resultant was diluted with a medium. Each strain was added to about 10^5 CFU/mL (final concentration). Each of the peptide solutions to be tested was diluted with MHB to obtain a solution of 128 μg/mL. […] As controls, tobramycin (TOB: aminoglucoside antibiotic), oxacillin (OX:β-lactam antibiotic), meropenem (MEPM: carbapenem antibiotic) and ciprofloxacin (new quinolone antibiotic) were used. […] To a 96-well microtiter plate, 0.1 mL of the inoculation solution and 0.1 mL of the peptide- or positive control-containing medium having the respective concentration were added, and cultured at 37° C. for 16 to 24 hours (or a time period suited for the growth of the respective strain). The well not containing the sample was used as a negative control. After the culturing, the growth was visually observed, and the minimum concentration at which the growth was inhibited was defined as the minimum growth inhibition concentration (MIC). The medium used in this test for bacteria was Mueller-Hinton broth. Independent experiments were carried out twice or more for each strain.

[14] = test system: Staphylococcus aureus ATCC29213; assay: microbe, parasite or virus in culture; type: cell-based
Protocol: as §4

[15] = test system: Staphylococcus epidermidis JCM 2414; assay: microbe, parasite or virus in culture; type: cell-based
Protocol: as §4

[16] = test system: Pseudomonas aeruginosa ATCC 27853; assay: microbe, parasite or virus in culture; type: cell-based
Protocol: as §4

[17] = test system: Bacteroides fragilis JCM 11019; details: Table 4; two tests, first/second value where not identical
[18] = test system: Acinetobacter baumanni JCM6841; details: JCM6841
[19] = test system: Streptococcus pyogenes JCM5674
[20] = test system: Rhizopus oryzae NBRC 31005; details: NBRC 31005
[21] = test system: Aspergillus niger NBRC 9455; details: Table 4; two tests, first/second value where not identical
[22] = test system: Cryptococcus neoformans IFM 46660
[23] = test system: Enterobacter cloacae JCM 1232; type: cell-based; details: Table 4; two tests, first/second value where not identical
Protocol: as §4

[24] = test system: Pseudomonas aeruginosa 9 (clinical strain); assay: microbe, parasite or virus in culture; details: Table 4; clinical strain; first/second value where not identical
Protocol: as §1, with “ATCC29213, Klebsiella pneumoniae JCM 1662, Enterobacter cloacae JCM 1232, Enterobacter aerogenes JCM 1235” for “ATCC29213,”, “50” for “50 μL)”
(§5) Further, the antibacterial activities against the clinical strains collected and isolated from infected patients were also examined. The tests were carried out for two methicillin-resistant Staphylococcus (MRSA) (MRSA (i) and (ii)), two methicillin-sensitive Staphylococcus (MSSA) (MSSA (i) and (ii)), five Pseudomonas aeruginosa, Pseudomonas aeruginosa 1, Pseudomonas aeruginosa 6, Pseudomonas aeruginosa 8. Pseudomonas aeruginosa 9 and Pseudomonas aeruginosa 12, totally 9 clinical strains. The MRSA and MSSA clinical strains were tested by the same method as Staphylococcus aureus ATCC29213, and Pseudomonas clinical strains were tested by the same method as Pseudomonas aeruginosa ATCC 27853.
(§6) Each of the peptide solutions to be tested was diluted with MHB to obtain a solution of 128 μg/mL. This solution was serially diluted with the medium to prepare peptide-containing media having concentrations of 128, 64, 32, 16, 8.0, 4.0 and 2.0 μg/mL respectively. […] By dilution with sterilized purified water to 1.0 mg/mL, positive control-containing media having concentrations of 16, 8, 4, 2, 1.0, 0.25, 0.12 and 0.06 μg/mL, respectively for TOB; 0.5, 0.12 and 0.06 μg/mL, respectively, for OX; and 16, 8, 4, 2, 1.0, 0.25, 0.12, 0.06, 0.06, 0.03 and 0.008 μg/mL, respectively, for MEPM, were prepared.
(§7) To a 96-well microtiter plate, 0.1 mL of the inoculation solution and 0.1 mL of the peptide- or positive control-containing medium having the respective concentration were added, and cultured at 37° C. for 16 to 24 hours (or a time period suited for the growth of the respective strain). The well not containing the sample was used as a negative control. After the culturing, the growth was visually observed, and the minimum concentration at which the growth was inhibited was defined as the minimum growth inhibition concentration (MIC).
(§8) The medium used in this test for bacteria was Mueller-Hinton broth. Independent experiments were carried out twice or more for each strain.

[25] = test system: Pseudomonas aeruginosa 1 (clinical strain); assay: microbe, parasite or virus in culture; details: Table 4; clinical strain; first/second value where not identical
Protocol: as §1, with “ATCC29213, Klebsiella pneumoniae JCM 1662, Enterobacter cloacae JCM 1232, Enterobacter aerogenes JCM 1235” for “ATCC29213,”, “50” for “50 μL)”
as §5, §6, §7, §8

[26] = test system: Pseudomonas aeruginosa 6 (clinical strain); assay: microbe, parasite or virus in culture; details: Table 4; clinical strain; first/second value where not identical
Protocol: as §1, with “ATCC29213, Klebsiella pneumoniae JCM 1662, Enterobacter cloacae JCM 1232, Enterobacter aerogenes JCM 1235” for “ATCC29213,”, “50” for “50 μL)”
as §5, §6, §7, §8

[27] = test system: Pseudomonas aeruginosa 12 (clinical strain); assay: microbe, parasite or virus in culture
Protocol: as §1, with “ATCC29213, Klebsiella pneumoniae JCM 1662, Enterobacter cloacae JCM 1232, Enterobacter aerogenes JCM 1235” for “ATCC29213,”, “50” for “50 μL)”
as §5, §6, §7, §8

[28] = test system: Klebsiella pneumoniae JCM 1662; assay: microbe, parasite or virus in culture; type: cell-based
Protocol: as §4

[29] = test system: Enterobacter aerogenes JCM 1235; assay: microbe, parasite or virus in culture; type: cell-based; details: Table 4; two tests, first/second value where not identical
Protocol: as §4

[30] = test system: Pseudomonas aeruginosa 8 (clinical strain); details: Table 4; clinical strain; first/second value where not identical
Protocol: as §1, with “ATCC29213, Klebsiella pneumoniae JCM 1662, Enterobacter cloacae JCM 1232, Enterobacter aerogenes JCM 1235” for “ATCC29213,”, “50” for “50 μL)”
as §5, §6, §7, §8

[31] = Table 4, two tests, first/second value where not identical
[32] = Table 4, clinical strain, first/second value where not identical

| Substance | Escherichia coli ATP (viability, relative value to negative control) [2] | Staphylococcus aureus ATP (viability, relative value to negative control) [3] | Pseudomonas aeruginosa ATP (viability, relative value to negative control) [4] | MIC Escherichia coli [13, 31] | MIC Staphylococcus aureus ([14]; ATCC29213) | MIC Staphylococcus epidermidis ([15]; JCM 2414) | MIC Pseudomonas aeruginosa [16, 31] | MIC Rhizopus oryzae [20] | MIC Aspergillus niger [21] | MIC Enterobacter cloacae [23] | MIC Pseudomonas aeruginosa 9 [24] | MIC Pseudomonas aeruginosa 1 [25] | MIC Pseudomonas aeruginosa 6 [26] | MIC Pseudomonas aeruginosa 12 [27, 32] | MIC Pseudomonas aeruginosa ([16]; ATCC 27853) | MIC Enterobacter aerogenes [29] | MIC Pseudomonas aeruginosa 8 [30] | MIC Cryptococcus neoformans ([22]; IFM 46660) | MIC Klebsiella pneumoniae [28, 31] | also measured |
| --- | --- | --- | --- | --- | --- | --- | --- | --- | --- | --- | --- | --- | --- | --- | --- | --- | --- | --- | --- | --- |
| Ac-KLIFLRELRRLRKRLKRKLR-NH2 [SRP-20] | 6.2 | 3.2 | 1.1 | 8/16 | 16 mg/L | 8000 to 16000 µg/mL | 8/16 |  |  |  |  |  |  |  |  |  |  |  |  | MIC Salmonella Enteritidis [1]: 4 mg/L; MIC Bacillus subtilis [5]: 2 mg/L; MIC Fusobacterium nucleatum [6]: 4 mg/L; MIC Micrococcus luteus [7]: 2 mg/L; MIC Actinobacillus actinomycetemcomitans [8]: 128 mg/L; MIC Alternaria alternata [9]: 32/64; MIC Fusarium solani (Fusarium solani JCM11383): 4 mg/L; MIC Salmonella Typhimurium [10]: 4 mg/L; MIC Candida krusei (Candida krusei NBRC1395): 16 mg/L; MIC Trichophyton mentagrophytes [11]: 16 mg/L; MIC Trichophyton rubrum [12]: 32 mg/L; MIC Bacteroides fragilis [17]: 8/16; MIC Acinetobacter baumanni [18]: 16 mg/L; MIC Streptococcus pyogenes [19]: 32 mg/L |
| MLKLIFLHRLKRMRKRLKRKLR-NH2 [SRP-9] | 2.6 | 0.2 | 0.8 |  |  |  |  | 8 mg/L | 16/32 | 16/64 | 32/128 | 16/32 | 16/64 | 16/32 | 16 mg/L | 16/64 | 8/32 |  |  | MIC Cryptococcus neoformans [22, 31]: 1/2; MIC Klebsiella pneumoniae ([28]; JCM 1662): 64 mg/L; MIC Escherichia coli ([13]; ATCC 25922): 32 mg/L; MIC Staphylococcus aureus [14, 31]: 16/32; MIC Staphylococcus epidermidis [15, 31]: 8/32 |
| LKLIFLHRLKRMRKRLKRKL-NH2 [SRP-11] | 3.8 | 0.3 | 0.8 | 32/64 | 16 mg/L | 8 µg/mL |  | 8 mg/L | 8/32 | 128< mg/mL | 16/32 | 16/32 | 16/32 |  | 16 mg/L | 32/64 | 16/32 | 2 mg/L | 64/128 | MIC Pseudomonas aeruginosa 12 ([27]; 12 (clinical strain)): 16 mg/L |
| MLKLIFLHRLKRMRKRLKRK-NH2 [SRP-10] | 2.4 | 0.2 | 0.9 | 32/64 | 16 mg/L | 8 µg/mL | 16/32 | 8 mg/L | 8/16 | 64/128 | 64/128 | 16/64 | 32/128 | 16/32 |  | 16/128 | 64/128 | 2 mg/L | 64/128 |  |
